Reference: patent publication US10787465B2, “Lanthanide toolbox for organelle specific molecular imaging with multi-color” (New Life Medicine Technology Company Limited, priority 2017, dated 2020)

Tests used:
MRC-5 cells = assay: MTT cell cytotoxicity assay, MRC-5; format: cell-based, Human; conditions: Incubation time = 24 hours
Protocol: (§1) Human cervical cancer HeLa cells were grown in Dulbecco's Modified Eagle Medium (DMEM). Human lung normal diploid fibroblasts MRC-5 and neuroblastoma cells SK-N-SH were provided by Cell resource center of Shanghai Institute of Biological Sciences, Chinese Academy of Sciences; and cultured in MEM (GIBCO 41500034); Human derived liver cells QSG-7701 cells were grown in RPMI-1640 (GIBCO 31800022); all cells were supplemented with 10% (v/v) fetal bovine serum, 1% penicillin and streptomycin at 37° C. and 5% CO2.
(§2) HeLa, SKA-SH, QSG-7701 or MRC-5 cells treated with testing complexes for 24 hours were further incubated with MTT, 3-(4,5-dimethylthiazol-2-yl)-2 and 5-diphenyltetrazolium bromide (0.5 mg; ml) for 4 hours, to produce formazan during cell metabolism. Then, formazan was thoroughly dissolved by dimethyl sulfoxide (DMSO), and the absorbance of solutions was measured in Bio-Rad iMark microplate reader (570 nm). Quadruplicates were performed. Data analysis and plotting were operated by the GraphPad Prism 5 software.

HeLa cells [1] = assay: MTT cell cytotoxicity assay, HeLa; format: cell-based, Human; conditions: Incubation time = 24 hours
Protocol: as §1, §2

HeLa cells [2] = assay: Two-photon confocal in vitro imaging (subcellular localization); format: cell-based, Human; conditions: 10 μM; for localization of red emission: two-photon λex=700 nm
Protocol: Cells were seeded on coverslip in 35-mm culture dishes overnight. And then incubated with HGEu001 or HGEu002 (10 μM) for 6 hours, and the cells were washed by PBS 3 times before imaging. […] Then the unabsorbed complexes were washed out with PBS buffer and the cells were subject to microscopic imaging. The in vitro imaging of HGEu001 and HGEu002 were undertaken on a linear fluorescence microscopy under 375 nm UV light excitation or a confocal laser scanning microscope, Leica TCS SP8, equipped with a Ti:sapphire laser (Libra II, coherent). The excitation beam produced by 690 nm to 1080 nm (fs laser) was focused on the adherent cells through a 63× oil immersion objective.
3D images obtained by the Z-stacks form the two-photon confocal microscopy and the 3D reconstruction was done with built-in programs of Leica TCS SP8 confocal microscope.

[3] = system: organelles (mitochondria, lysosome and Golgi apparatus); assay: Co-localization imaging with organelle probes; format: cell-based, Human; conditions: HeLa cells, 10 μM, 6 hours, MitoTracker Green FM
Protocol: (b) Co-Localization Imaging of HGEu001 and HGEu002 with Organelles.
Live cell labeling probes of organelles (mitochondria, lysosome and Golgi apparatus) MitoTracker® Green FM (M-7514), LysoTracker® Green DND-26 (L-7526) and GolgiTracker® Oregon Green (W6748, Wheat Germ Agglutinin) were respectively purchased from ThermoFisher Scientic Inc. and stocked in −20° C.
Three dishes of HeLa cells (1×10^5) were first incubated with 10 μM HGEu001/HGEu002 for 6 hours. Then organelles probes (50 nM, each) were added in parallel to the cells and further incubated for 15 minutes. The cells were washed by PBS 3 times before imaging on the linear fluorescence microscopy. Under the excitation of UV light (375 nm) emission from the channel (610-630 nm) were collected for the emission signals from HGEu001/HGEu002. Under 488 nm blue light excitation, imaging channel in the range between 505 and 555 nm were collected from the emission signal of organelles dyes.

GFP-ARL13B = assay: Co-localization imaging with primary cilia marker GFP-ARL13B; format: cell-based, Human; conditions: HeLa cells, 10 μM
From the text: (§3) (a) 3D Co-Localization Imaging of HGEu001 and HGEu002 with Primary Cilia Markers ARTL13B and IFT88.
(§4) Full length ARTL13B (ADP-ribosylation factor-like protein 13B) was PCR amplified from cDNA library and inserted into multiple cloning sites (MCS) of pEGFP-C3 (CLONETECH, #6082-1) using restriction digestion sites of XhoI/EcorI for GFP-ARTL13B expression. […] Plasmid mEmerald-IFT88-N-18 (intraflagellar transport protein 88 homolog) expressing GFP-IFT88 was a gift from Michael Davidson (Addgene plasmid #54125). Plasmids were amplified in E. coli (DH5α) and purified using a StarPrep Plasmid Miniprep Kit (Genstar). Both GFP-ARL13B and GFP-ITF88 for primary cilium tracking were expressed in HeLa cells through lipofectamine2000 (Cat. No.11668-019, Invitrogen) mediated transfection. Briefly, a 3.5 cm dish of HeLa cells (with 70-80% confluent) was transfected with 4 μg DNA plus 4 μL lipotectamine2000 mixture according to the manufacturer instructions. After incubation for 8 hours, 10 μM of HGEu001 or HGEu002 were added and incubated for 6 hours.

GFP-IFT88 = assay: Co-localization imaging with primary cilia marker GFP-IFT88; format: cell-based, Human; conditions: HeLa cells, 10 μM, 6 hours, z stack, λex=700 nm
From the text: as §3, §4

[4] = Photophysical studies (absorption, emission, decay lifetime, quantum yield); format: physicochemical
Protocol: UV-Visible absorption spectra in the spectral range 200 to 1100 nm were recorded by an HP Agilent UV-8453 Spectrophotometer. The emission spectra and the emission decay lifetimes of HGEu001 and HGEu002 were measured by Horiba Fluorolog-3 spectrophotometer and also measured by Edinburgh instrument ELS920 spectrophotometer for cross checking. (Two spectrophotometers are equipped with a 450 W continuous xenon lamp for steady state emission measurement, 60 W xenon flashlamp for emission life time measurement and an UV-Vis PMT detector—Hamamatsu—R928 cooled 216 at −20° C.)
UV-Visible absorption spectra of HGEu001-Coumarin and HGEu001-Por were recorded by an HP Agilent UV-8453 Spectrophotometer. The emission spectra of HGEu001-Coumarin and HGEu001-Por were measured by Horiba Fluorolog-3 spectrophotometer, which was equipped with a 450 W continuous xenon lamp and a UV-Vis PMT detector—Hamamatsu—R928 cooled 216 at −20° C. for steady state emission measurement.

SK-N-SH cells = assay: MTT cell cytotoxicity assay, SK-N-SH; format: cell-based, Human; conditions: Incubation time = 24 hours
Protocol: as §1, §2

QSG-7701 cells = assay: MTT cell cytotoxicity assay, QSG-7701; format: cell-based, Human; conditions: Incubation time = 24 hours
Protocol: as §1, §2

## CC(C)(C)NC(=O)CN1CCN(CC(=O)NC(C)(C)C)CCN(Cc2cc(C#Cc3ccc(NC(=O)c4ccc(C(F)(F)F)cc4)cc3)ccn2)CCN(CC(=O)NC(C)(C)C)CC1.O.[Cl-].[Cl-].[Cl-].[Eu+3] [HGEu002]
MRC-5 cells
  IC50: 402 µM
HeLa cells [1]
  IC50: 417 µM
HeLa cells [2]; 3 hours incubation
  localization of red emission: localized in cytoplasm
HeLa cells [2]; 6 hours incubation
  localization of red emission: localized in cytoplasm
HeLa cells [2]; 6 hours, z stack, excitation at 700 nm
  europium emission in the rod-like organelles, three dimensional confocal images: did not show any europium emission in the rod-like organelles
HeLa cells [2]; 18 hours incubation
  localization of red emission: localized in cytoplasm
HeLa cells [2]; 24 hours incubation
  localization of red emission: localized in cytoplasm
[3]
  merged emission with green mito-tracker, three dimensional imaging: did not show merged yellow in vitro emission
GFP-ARL13B; 6 hour incubation after GFP transfection
  overlap of red emission with green emission of GFP-ARL13B (merged images): only slight yellow emission can be found in their merged images
GFP-ARL13B; 6 hours, z stack, λex=700 nm
  merged emission on co-staining with GFP-ARL13B, three dimensional imaging: did not show merged yellow in vitro emission
GFP-IFT88
  merged emission on co-staining with GFP-IFT88, three dimensional imaging: did not show merged yellow in vitro emission
[4]; D2O, λem = 614 nm, 5D0→7F2, λex = 340 nm
  τ(D2O), europium emission decay lifetime: 1.78 ms
[4]; H2O, λem = 614 nm, 5D0→7F2, λex = 340 nm
  τ(H2O), europium emission decay lifetime: 0.56 ms
[4]; in H2O, 298K
  ε (absorption coefficient): 22200 M⁻¹ cm⁻¹
  λmax (absorption): 327 nm
[4]; in H2O, by integrated sphere
  ΦL^Eu, overall europium emission quantum yield: 10.3%
[4]; q (±20%), from k(H2O) and k(D2O)
  q, derived hydration number: 0.9
SK-N-SH cells
  IC50: 437 µM
QSG-7701 cells
  IC50: 410 µM
